Values quoted from earlier work, collected in patent US5807979A, “Synthetic, three-dimensionally stabilized polypeptide mimics of HIV” (The Scripps Research Institute, priority 1995, dated 1998).

What was measured:
[1] = fraction of the activity of parent EGF; cited from earlier work
[2] = test system: malaria; conditions: tested in humans; cited from earlier work

Substance: active fragment of epidermal growth factor (EGF), comprising amino acids 20-31: active fragment of epidermal growth factor (EGF), comprising amino acids 20-31 (CMYIEALDKYAC; Epidermal growth factor; UniProt P01133 990-1001, looked up, fragment)
- activity relative to that of the parent molecule [1]: about 10^-4

Substance: (Asn-Ala-Asn-Pro)3
- effectiveness of vaccine in humans [2]: only partially effective
